This is an account of results in patent publication US20220281876A1, “DEGRADATION OF BRUTON'S TYROSINE KINASE (BTK) BY CONJUGATION OF BTK INHIBITORS WITH E3 LIGASE LIGAND AND METHODS OF USE” (BEIGENE, LTD., priority 2019, published 2022).

As usually defined, the DC50 is the concentration giving 50% degradation. A higher DC50 goes with degradation only at high concentration.

The target in this test is T1, BTK (Homo sapiens, UniProt Q06187).
T1 construct: endogenous in cells; host or cells: Ramos cells
T1 sequence (Q06187 whole entry): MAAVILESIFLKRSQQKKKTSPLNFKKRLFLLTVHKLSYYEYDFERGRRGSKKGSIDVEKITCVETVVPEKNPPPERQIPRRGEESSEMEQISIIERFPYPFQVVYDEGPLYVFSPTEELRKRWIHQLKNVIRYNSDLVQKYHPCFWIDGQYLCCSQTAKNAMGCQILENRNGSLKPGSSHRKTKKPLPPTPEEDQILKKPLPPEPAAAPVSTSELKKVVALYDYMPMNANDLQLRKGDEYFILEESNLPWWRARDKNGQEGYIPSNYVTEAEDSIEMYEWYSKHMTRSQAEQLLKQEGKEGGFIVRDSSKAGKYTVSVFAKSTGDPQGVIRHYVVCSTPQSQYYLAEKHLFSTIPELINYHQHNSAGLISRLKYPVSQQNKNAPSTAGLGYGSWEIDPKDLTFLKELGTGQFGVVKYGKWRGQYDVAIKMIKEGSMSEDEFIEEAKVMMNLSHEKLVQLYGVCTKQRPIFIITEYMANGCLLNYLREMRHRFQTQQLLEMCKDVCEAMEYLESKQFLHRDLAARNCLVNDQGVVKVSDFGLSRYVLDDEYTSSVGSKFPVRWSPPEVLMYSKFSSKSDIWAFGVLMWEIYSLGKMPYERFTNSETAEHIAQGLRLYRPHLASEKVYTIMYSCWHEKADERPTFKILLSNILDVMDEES
As to the kind of experiment: BTK cell degradation in Ramos cells (total BTK ELISA). The following applies: 16 h incubation, FastScan total BTK ELISA. Type of test: cell-based. The method in brief: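 Ramos cells were treated for 16 h with compounds (7 doses, 5-fold dilution series, 0.1% DMSO). Total BTK in cell lysates was quantified by sandwich ELISA with TMB read-out at 450 nm.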
On the technique in general: In an ELISA, binding on a coated surface is turned into a signal by an enzyme label.
As to `NC(=O)c1c(-c2ccc(Oc3ccccc3)cc2)nn2c1NCC[C@H]2C1CCN(C(=O)CCCc2ccc(NC(=O)CNc3ccc4c(c3)C(=O)N(C3CCC(=O)NC3=O)C4=O)cc2)CC1` (stereo partly drawn) [Example 58, (7S)-7-(1-(4-(4-(2-((2-(2,6-dioxopiperidin-3-yl)-1,3-dioxoisoindolin-5-yl)amino)acetamido)phenyl)butanoyl)piperidin-4-yl)-2-(4-phenoxyphenyl)-4,5,6,7-tetrahydropyrazolo[1,5-a] pyrimidine-3-carboxamide], the DC50 is 28 nM.
With `NC(=O)c1c(-c2ccc(Oc3ccccc3)cc2)nn2c1NCC[C@H]2C1CCN(C(=O)CCN2CCN(C(=O)CNc3ccc4c(c3)C(=O)N(C3CCC(=O)NC3=O)C4=O)CC2)CC1` (stereo partly drawn) [Example 63, (7S)-7-(1-(3-(4-((2-(2,6-dioxopiperidin-3-yl)-1,3-dioxoisoindolin-5-yl)glycyl)piperazin-1-yl)propanoyl)piperidin-4-yl)-2-(4-phenoxyphenyl)-4,5,6,7-tetrahydropyrazolo[1,5-a]pyrimidine-3-carboxamide] the figure was 2.9 nM.
With `CN(CCC(=O)N1CCC([C@@H]2CCNc3c(C(N)=O)c(-c4ccc(Oc5ccccc5)cc4)nn32)CC1)CC1CCN(c2ccc3c(c2)C(=O)N(C2CCC(=O)NC2=O)C3=O)CC1` (stereo partly drawn) [Example 64, (7S)-7-(1-(3-(((1-(2-(2,6-dioxopiperidin-3-yl)-1,3-dioxoisoindolin-5-yl)piperidin-4-yl)methyl)(methyl)amino)propanoyl)piperidin-4-yl)-2-(4-phenoxyphenyl)-4,5,6,7-tetrahydropyrazolo[1,5-a]pyrimidine-3-carboxamide] the figure was 35 nM; with `NC(=O)c1c(-c2ccc(Oc3ccccc3)cc2)nn2c1NCC[C@H]2C1CCN(C(=O)CCN2CCC(CN3CCN(c4ccc5c(c4)C(=O)N(C4CCC(=O)NC4=O)C5=O)CC3)CC2)CC1` (stereo partly drawn) [Example 95, (7S)-7-(1-(3-(4-((4-(2-(2,6-dioxopiperidin-3-yl)-1,3-dioxoisoindolin-5-yl)piperazin-1-yl)methyl)piperidin-1-yl)propanoyl)piperidin-4-yl)-2-(4-phenoxyphenyl)-4,5,6,7-tetrahydropyrazolo[1,5-a]pyrimidine-3-carboxamide], 1680 nM.
The molecule `NC(=O)c1c(-c2ccc(Oc3ccccc3)cc2)nn2c1NCC[C@H]2C1CCN(C(=O)CCCC2CCC(N3CCN(c4ccc5c(c4)C(=O)N(C4CCC(=O)NC4=O)C5=O)CC3)CC2)CC1` (stereo partly drawn) [Example 148, (7S)-7-(1-(4-(4-(4-(2-(2,6-dioxopiperidin-3-yl)-1,3-dioxoisoindolin-5-yl)piperazin-1-yl)cyclohexyl)butanoyl)piperidin-4-yl)-2-(4-phenoxyphenyl)-4,5,6,7-tetrahydropyrazolo[1,5-a]pyrimidine-3-carboxamide] came in with a 50% degradation concentration (DC50) of 205 nM.
With `NC(=O)c1c(-c2ccc(Oc3ccccc3)cc2)nn2c1NCC[C@H]2C1CCN(C(=O)CCC2CCC(N3CCN(c4ccc5c(c4)C(=O)N(C4CCC(=O)NC4=O)C5=O)CC3)CC2)CC1` (stereo partly drawn) [Example 151, (7S)-7-(1-(3-(4-(4-(2-(2,6-dioxopiperidin-3-yl)-1,3-dioxoisoindolin-5-yl)piperazin-1-yl)cyclohexyl)propanoyl)piperidin-4-yl)-2-(4-phenoxyphenyl)-4,5,6,7-tetrahydropyrazolo[1,5-a] pyrimidine-3-carboxamide] the figure was 17 nM; with `NC(=O)c1c(-c2ccc(Oc3ccccc3)cc2)nn2c1NCC[C@H]2C1CCN(C(=O)CCCN2CCN(C(=O)CNc3ccc4c(c3)C(=O)N(C3CCC(=O)NC3=O)C4=O)CC2)CC1` (stereo partly drawn) [Example 152, (7S)-7-(1-(4-(4-((2-(2,6-dioxopiperidin-3-yl)-1,3-dioxoisoindolin-5-yl)glycyl)piperazin-1-yl)butanoyl)piperidin-4-yl)-2-(4-phenoxyphenyl)-4,5,6,7-tetrahydropyrazolo[1,5-a]pyrimidine-3-carboxamide], 35 nM.
As for `NC(=O)c1c(-c2ccc(Oc3ccccc3)cc2)nn2c1NCC[C@H]2C1CCN(C(=O)CCNc2cccc3c2C(=O)N(C2CCC(=O)NC2=O)C3=O)CC1` (stereo partly drawn) [Example 154, (7S)-7-(1-(3-((2-(2,6-dioxopiperidin-3-yl)-1,3-dioxoisoindolin-4-yl)amino)propanoyl)piperidin-4-yl)-2-(4-phenoxyphenyl)-4,5,6,7-tetrahydropyrazolo[1,5-a]pyrimidine-3-carboxamide], the DC50 amounted to 637 nM.
Molecule `CN(CC1CCN(C(=O)c2ccc(N3CCC(=O)NC3=O)cc2)CC1)C1CC(C(=O)N2CCC([C@@H]3CCNc4c(C(N)=O)c(-c5ccc(Oc6ccccc6)cc5)nn43)CC2)C1` (stereo partly drawn) [Example 155, (S)-7-(1-(3-(((1-(4-(2,4-dioxotetrahydropyrimidin-1(2H)-yl)benzoyl)piperidin-4-yl)methyl)(methyl)amino)cyclobutane-1-carbonyl)piperidin-4-yl)-2-(4-phenoxyphenyl)-4,5,6,7-tetrahydropyrazolo[1,5-a]pyrimidine-3-carboxamide] returned a DC50 of 7.2 nM.
In the case of `NC(=O)c1c(-c2ccc(Oc3ccccc3)cc2)nn2c1NCC[C@H]2C1CCN(C(=O)CCN2CCC(N3CCN(c4ccc5c(c4)C(=O)N(C4CCC(=O)NC4=O)C5=O)CC3)CC2)CC1` (stereo partly drawn) [Example 156, (7S)-7-(1-(3-(4-(4-(2-(2,6-dioxopiperidin-3-yl)-1,3-dioxoisoindolin-5-yl)piperazin-1-yl)piperidin-1-yl)propanoyl)piperidin-4-yl)-2-(4-phenoxyphenyl)-4,5,6,7-tetrahydropyrazolo[1,5-a]pyrimidine-3-carboxamide], the half-maximal degradation concentration (DC50) was found to be 1680 nM.
